# From ChEMBL document CHEMBL5150076, “Discovery of Novel Orally Bioavailable Triazoles with Potent and Broad-Spectrum Antifungal Activity In Vitro and In Vivo” (J Med Chem, 2022)
# Activity calls are given as the source filed them. The rule behind the calls is not given here.
# Tests used:
# Pichia kudriavzevii [1] = assay: Antifungal activity against Candida krusei 467; assay type: functional
# [2] = target: T1, Lanosterol 14-alpha demethylase (Candida albicans (strain SC5314 / ATCC MYA-2876) (Yeast), UniProt P10613); assay: Inhibition of CYP51 in Candida albicans SC5314 assessed as ergosterol level at 0.0625 ug/ml measured after 12 hrs by GC-MS analysis (reference value: 72.58%); parameters: scale not given: the % may be the effect or the level left; details: dose 0.0625 µg/ml
# [3] = Clearance in Sprague-Dawley rat at 2 mg/kg, iv by LC-MS analysis; details: in vivo
# [4] = AUC(0 to infinity) in Sprague-Dawley rat at 2 mg/kg, iv by LC-MS analysis; assay type: ADME, organism-based; parameters: time infinity, dose 2 mg/kg, route iv; details: in vivo
# Candida parapsilosis [5] = assay: Antifungal activity against Candida parapsilosis 90018; assay type: functional; details: Lodderomyces parapsilosis
# Pichia kudriavzevii [6] = assay: Antifungal activity against Candida krusei 397; assay type: functional
# Candida parapsilosis [7] = assay: Antifungal activity against Candida parapsilosis 22019; assay type: functional; details: Lodderomyces parapsilosis
# Trichophyton rubrum = assay: Antifungal activity against Trichophyton rubrum cmccftla; assay type: functional
# Candida parapsilosis [8] = assay: Antifungal activity against Candida parapsilosis 660; assay type: functional; details: Lodderomyces parapsilosis
# Candida tropicalis = assay: Antifungal activity against Candida tropicalis ATCC750; assay type: functional
# [Candida] auris [9] = Antifungal activity against Candida auris D12; assay type: functional; details: Candidozyma auris
# [10] = Induction of drug resistance in Candida albicans SC5314 assessed as increase in MIC after 2 weeks (reference value: 0.008 microg/ml); assay type: functional; details: SC5314, 336 h
# Candida albicans [11] = assay: Antifungal activity against Candida albicans SC5314 infected in ICR mouse assessed as median survival time at 0.5 mg/kg, po qd infected with fungus for 2 hrs prior to compound addition for 7 days and measured for 20 days; assay type: functional; details: time 20 day
# Candida albicans [12] = assay: Inhibition of biofilm formation in Candida albicans SC5314 at 0.5 ug/ml relative to control; assay type: functional
# Candida albicans [13] = assay: Antifungal activity against Candida albicans 162; assay type: functional
# [14] = target: T1, Lanosterol 14-alpha demethylase; assay: Inhibition of CYP51 in Candida albicans SC5314 assessed as ergosterol level at 0.5 ug/ml measured after 12 hrs by GC-MS analysis (reference value: 72.58%); parameters: scale not given: the % may be the effect or the level left; details: at 0.5 µg/mL
# [Candida] auris [15] = Antifungal activity against Candida auris BS12372; assay type: functional; details: Candidozyma auris
# Candida albicans [16] = assay: Antifungal activity against Candida albicans SC5314 infected in ICR mouse assessed as delay in mortality at 0.25 to 0.5 mg/kg, po qd infected with fungus for 2 hrs prior to compound addition for 7 days and measured for 20 days; assay type: functional, organism-based; details: dose 0.25-0.5 mg/kg, time 20.0 day
# Aspergillus fumigatus [17] = assay: Antifungal activity against Aspergillus fumigatus 7544 infected in ICR mouse assessed as delay in mortality at 20 to 60 mg/kg, po qd infected with fungus for 2 hrs prior to compound addition for 7 days and measured for 20 days; assay type: functional, organism-based; details: dose 20-60 mg/kg, time 20.0 day
# Nakaseomyces glabratus [18] = assay: Antifungal activity against Candida glabrata ATCC2001; assay type: functional
# Candida albicans [19] = assay: Inhibition of biofilm formation in Candida albicans SC5314 at 0.002 ug/ml relative to control; assay type: functional
# [20] = target: T1, Lanosterol 14-alpha demethylase; assay: Inhibition of CYP51 in Candida albicans SC5314 assessed as eburicol level at 0.0625 ug/ml measured after 12 hrs by GC-MS analysis (reference value: 0.00%); parameters: scale not given: the % may be the effect or the level left; details: dose 0.0625 µg/ml
# Aspergillus fumigatus [21] = assay: Antifungal activity against Aspergillus fumigatus 7544 incubated for 48 hrs by microbroth dilution method; assay type: functional
# Cryptococcus neoformans [22] = assay: Antifungal activity against Cryptococcus neoformans H99 infected in ICR mouse assessed as median survival time at 0.5 mg/kg, po qd infected with fungus for 2 hrs prior to compound addition for 7 days and measured for 20 days; assay type: functional; details: time 20 day
# [23] = Induction of hemolysis in rabbit RBC at 64 ug/ml incubated for 1 hr; assay type: toxicity, cell-based, Oryctolagus cuniculus, Erythrocyte; details: red blood cells, dose 64 µg/ml, read-out: Activity
# [24] = Cmax in Sprague-Dawley rat at 5 mg/kg, po by LC-MS analysis; assay type: ADME, organism-based; parameters: dose 5 mg/kg, route po; details: in vivo
# [Candida] auris [25] = Antifungal activity against Candida auris 791; assay type: functional; details: Candidozyma auris
# Candida albicans [26] = assay: Antifungal activity against Candida albicans 25#; assay type: functional
# Candida parapsilosis [27] = assay: Antifungal activity against Candida parapsilosis 700; assay type: functional; details: Lodderomyces parapsilosis
# [28] = Half life in Sprague-Dawley rat at 5 mg/kg, po by LC-MS analysis; assay type: ADME, organism-based; details: in vivo
# Candida albicans [29] = assay: Inhibition of biofilm formation in Candida albicans SC5314 at 0.0625 ug/ml relative to control; assay type: functional
# [30] = Induction of drug resistance in Candida albicans SC5314 assessed as increase in MIC after 26 days (reference value: 0.0313 microg/ml); assay type: functional; details: SC5314, 624 h, time 26 day
# Nannizzia gypsea = assay: Antifungal activity against Microsporum gypseum; assay type: functional
# Pichia kudriavzevii [31] = assay: Antifungal activity against Candida krusei 629; assay type: functional
# Candida albicans [32] = assay: Antifungal activity against Candida albicans 100 infected in ICR mouse assessed as median survival time at 0.25 mg/kg, po qd infected with fungus for 2 hrs prior to compound addition for 7 days and measured for 20 days; assay type: functional; details: time 20 day
# [33] = target: T1, Lanosterol 14-alpha demethylase; assay: Inhibition of CYP51 in Candida albicans SC5314 assessed as lanosterol level at 0.0625 ug/ml measured after 12 hrs by GC-MS analysis (reference value: 2.18%); parameters: scale not given: the % may be the effect or the level left; details: dose 0.0625 µg/ml
# Candida albicans [34] = assay: Antifungal activity against Candida albicans 100 infected in ICR mouse assessed as delay in mortality at 0.25 mg/kg, po qd infected with fungus for 2 hrs prior to compound addition for 7 days and measured for 20 days; assay type: functional, organism-based; details: time 20.0 day
# Cryptococcus neoformans [35] = assay: Antifungal activity against Cryptococcus neoformans H99 incubated for 72 hrs by microbroth dilution method; assay type: functional
# Cryptococcus neoformans [36] = assay: Antifungal activity against Cryptococcus neoformans H99 infected in po dosed ICR mouse assessed as increase in survival infected with fungus for 2 hrs prior to compound addition for 7 days and measured for 20 days; assay type: functional, organism-based; details: dose 0.5-5 mg/kg, time 20.0 day, DDE = dose-dependent effect
# Candida albicans [37] = assay: Antifungal activity against Candida albicans 14#; assay type: functional
# Nakaseomyces glabratus [38] = assay: Antifungal activity against Candida glabrata 537; assay type: functional
# Candida albicans [39] = assay: Antifungal activity against Candida albicans Y0109; assay type: functional
# Candida albicans [40] = assay: Antifungal activity against Candida albicans 28#; assay type: functional
# Candida albicans [41] = assay: Antifungal activity against Candida albicans 12#; assay type: functional
# Candida albicans [42] = assay: Antifungal activity against Candida albicans 305; assay type: functional
# [43] = Oral bioavailability in Sprague-Dawley rat at 5 mg/kg by LC-MS analysis; assay type: ADME, organism-based; details: in vivo
# [44] = Cytotoxicity against HUVEC assessed as cell viability at 64 ug/ml incubated for 24 hrs by CCK-8 assay; assay type: toxicity, cell-based; details: human, HUVEC cells, dose 64 µg/ml, read-out: Activity
# Candida albicans [45] = assay: Inhibition of biofilm formation in Candida albicans SC5314; assay type: functional, organism-based; details: dose 0.002-0.5 µg/ml, DDE = dose-dependent effect
# [46] = target: T1, Lanosterol 14-alpha demethylase; assay: Inhibition of CYP51 in Candida albicans SC5314 assessed as sterol level at 0.0625 ug/ml measured after 12 hrs by GC-MS analysis (reference value: 25.23%); parameters: scale not given: the % may be the effect or the level left; details: dose 0.0625 µg/ml
# Aspergillus fumigatus [47] = assay: Antifungal activity against Aspergillus fumigatus 7544 infected in ICR mouse assessed as survival rate at 20 mg/kg, po qd infected with fungus for 2 hrs prior to compound addition for 7 days and measured for 20 days; assay type: functional; details: time 20 day
# T1 sequence (P10613 whole entry): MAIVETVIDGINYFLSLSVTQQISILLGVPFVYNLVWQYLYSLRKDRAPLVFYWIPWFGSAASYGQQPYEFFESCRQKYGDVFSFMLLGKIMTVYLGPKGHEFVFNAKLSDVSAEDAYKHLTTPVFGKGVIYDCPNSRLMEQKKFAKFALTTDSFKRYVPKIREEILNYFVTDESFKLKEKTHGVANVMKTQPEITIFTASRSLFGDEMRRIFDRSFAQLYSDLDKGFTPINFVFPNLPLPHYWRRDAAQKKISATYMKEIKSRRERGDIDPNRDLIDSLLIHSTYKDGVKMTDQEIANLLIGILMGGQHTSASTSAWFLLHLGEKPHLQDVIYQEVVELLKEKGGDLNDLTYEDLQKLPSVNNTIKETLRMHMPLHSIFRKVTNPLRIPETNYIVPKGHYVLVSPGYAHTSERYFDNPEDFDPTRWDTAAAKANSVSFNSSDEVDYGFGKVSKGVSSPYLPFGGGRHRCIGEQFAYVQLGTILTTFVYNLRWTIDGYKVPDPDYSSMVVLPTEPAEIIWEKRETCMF
smiles,measurement,setting,value
C[C@@H](c1cn(-c2ccc(Cl)cc2F)nn1)[C@](O)(Cn1cncn1)c1ccc(F)cc1F,MIC,Pichia kudriavzevii [1],0.125 µg/mL
same,Activity,[2],0.76%
same,clearance,[3],1.99 mL/min/kg
same,AUC(0-inf),[4],8410 ng·h/mL
same,MIC,Candida parapsilosis [5],≤ 0.0313 µg/mL
same,MIC,Pichia kudriavzevii [6],0.125 µg/mL
same,MIC,Candida parapsilosis [7],0.0625 µg/mL
same,MIC,Trichophyton rubrum,0.125 µg/mL
same,MIC,Candida parapsilosis [8],≤ 0.0313 µg/mL
same,MIC,Candida tropicalis,8 µg/mL
same,MIC,[Candida] auris [9],1 µg/mL
same,MIC,[10],0.313 µg/mL
same,Time,Candida albicans [11],17 days
same,inhibition at 0.5 µg/mL,Candida albicans [12],80%
same,MIC,Candida albicans [13],8 µg/mL
same,Activity,[14],74.56%
same,MIC,[Candida] auris [15],0.25 µg/mL
same,Activity,Candida albicans [16],Active
same,Activity,Aspergillus fumigatus [17],Active
same,MIC,Nakaseomyces glabratus [18],0.125 µg/mL
same,inhibition at 0.002 µg/mL,Candida albicans [19],20%
same,Activity,[20],88.96%
same,MIC,Aspergillus fumigatus [21],1 µg/mL
same,Time,Cryptococcus neoformans [22],10.5 days
same,"hemolysis at 1 h, 64 ug/ml",[23],0.3%
same,Cmax,[24],837 ng/mL
same,MIC,[Candida] auris [25],1 µg/mL
same,MIC,Candida albicans [26],16 µg/mL
same,MIC,Candida parapsilosis [27],0.0625 µg/mL
same,half-life,[28],1.4 h
same,inhibition at 0.0625 µg/mL,Candida albicans [29],75%
same,MIC,[30],0.125 µg/mL
same,MIC,Nannizzia gypsea,1 µg/mL
same,MIC,Pichia kudriavzevii [31],0.25 µg/mL
same,Time,Candida albicans [32],14 days
same,Activity,[33],6.46%
same,Activity,Candida albicans [34],Active
same,MIC,Cryptococcus neoformans [35],0.0313 µg/mL
same,Activity,Cryptococcus neoformans [36],Dde
same,MIC,Candida albicans [37],8 µg/mL
same,MIC,Nakaseomyces glabratus [38],0.0625 µg/mL
same,MIC,Candida albicans [39],0.0156 µg/mL
same,MIC,Candida albicans [40],≤ 0.0313 µg/mL
same,MIC,Candida albicans [41],16 µg/mL
same,MIC,Candida albicans [42],8 µg/mL
same,bioavailability,[43],34%
same,"viability at 24 h, 64 ug/ml",[44],89.1%
same,inhibition,Candida albicans [45],Dde
same,Activity,[46],3.82%
same,Activity,Aspergillus fumigatus [47],30%
